Measurements as given in ChEMBL document CHEMBL5344444, “1-Benzylindoles as inhibitors of cytosolic phospholipase A2α: synthesis, biological activity, aqueous solubility, and cell permeability” (RSC Med Chem, 2024).
pIC50: −log10 of the molar value. Values after ≈ are worked out from the molar mass of the structure shown. Active and inactive are the calls of the source. No cut-off for these calls is given here.

Legend:
[1] = Inhibition of porcine platelets cPLA2 alpha using 1-stearoyl-2-arachidonoyl-sn-glycero-3-phosphocholine as substrate incubated for 60 mins by RP-HPLC -MS analysis; parameters: species or system Sus scrofa
[2] = organism: Sus scrofa; assay: Inhibition of porcine platelets cPLA2 alpha using 1-stearoyl-2-arachidonoyl-sn-glycero-3-phosphocholine as substrate at 10 uM incubated for 60 mins by RP-HPLC -MS analysis relative to control
[3] = Lipophilicity, logP of compound in acetonitrile/phosphate buffered saline at pH 7.4 by RP-HPLC analysis; type: physicochemical
[4] = Aqueous solubility of compound in phosphate buffered saline at pH 7.4 incubated for 10 min by RP-HPLC analysis; type: physicochemical
[5] = Apparent permeability coefficient in human CaCo-2 cells at 10 uM incubated for 2 hrs by HPLC-MS analysis; type: ADME, cell-based
[6] = Drug metabolism in human CaCo-2 cells assessed as beta-oxidation of pentanoic acid chain by measuring 3-(5-{[5-Chloro-1-(2,4-dichlorobenzyl)indol-3-yl]methyl}-2H-tetrazol-2-yl) propionic acid formation at 10 uM; type: ADME, cell-based; conditions: caco-2, 10 µM

Row | SMILES | pIC50 [1] | inhibition [2] | also measured
1 | O=C(O)CCCCCn1nnc(-c2cn(Cc3ccc(Cl)cc3Cl)c3ccccc23)n1 | 5.05 | – | –
2 | O=C(O)CCCn1nnc(CCc2cn(Cc3ccc(Cl)cc3Cl)c3ccccc23)n1 | < 5.00 | 23% | –
3 | O=C(O)CCCCn1nnc(Cc2cn(Cc3ccc(Cl)cc3Cl)c3cc(C(F)(F)F)ccc23)n1 | 6.77 | – | –
4 | O=C(O)CCCCn1nnc(Cc2cn(Cc3ccc(Cl)cc3Cl)c3ccc(OC(F)(F)F)cc23)n1 | 6.24 | – | –
5 | O=C(O)c1ccc(N/N=C/c2cn(Cc3ccc(Cl)c(Cl)c3)c3ccccc23)cc1 | – | 20% | –
6 | COC(=O)c1cn(CCc2cn(Cc3ccc(Cl)cc3Cl)c3ccccc23)c2ccc(C(=O)O)cc12 | 5.15 | – | –
7 | O=C(CCc1cn(Cc2ccc(Cl)cc2Cl)c2ccccc12)Oc1ccc(C(=O)O)cc1 | 5.22 | – | –
8 | O=C(O)c1ccc(N/N=C/c2ccc3c(ccn3Cc3ccc(Cl)cc3Cl)c2)cc1 | – | 30% | –
9 | O=C(O)c1ccc2c(c1)c(C(=O)C(F)(F)F)cn2CCc1cn(Cc2ccc(Cl)cc2Cl)c2ccccc12 | 5.10 | – | –
10 | O=C(O)CCCCn1nnc(Cc2cn(Cc3ccccc3)c3ccccc23)n1 | < 5.00 | 41% | –
11 | COc1ccc2c(Cc3nnn(CCCCC(=O)O)n3)cn(Cc3ccc(Cl)cc3Cl)c2c1 | 5.34 | – | –
12 | O=C(O)CCCCn1nnc(Cc2cn(Cc3ccc(Cl)c(Cl)c3)c3ccccc23)n1 | 5.25 | – | –
13 | Cc1c(CCOc2ccc(C(=O)O)cc2)c2cc(Cl)ccc2n1C(c1ccccc1)c1ccccc1 | 6.64 | – | logP [3]: 6.2; solubility at 10 min [4]: < 1 µg/mL
14 | O=C(O)CCCCn1nnc(Cc2cn(Cc3ccc(Cl)cc3Cl)c3ccc(-c4ccc(Cl)cc4)cc23)n1 | 6.05 | – | –
15 | O=C(O)c1ccc(N/N=C/c2cn(Cc3ccc(Cl)cc3Cl)c3ccccc23)cc1 | 4.66 | 21% | –
16 | O=C(O)c1ccc(N/N=C/c2cn(Cc3ccc(C(F)(F)F)cc3)c3ccccc23)cc1 | – | 15% | –
17 | O=C(O)CCCCn1nnc(Cc2cn(Cc3ccc(Cl)cc3Cl)c3cc(F)ccc23)n1 | 6.12 | – | –
18 | O=C(O)c1ccc(N/N=C/c2cccc3c2ccn3Cc2ccc(Cl)cc2Cl)cc1 | – | 24% | –
19 | Cc1ccc2c(c1)c(Cc1nnn(CCCCC(=O)O)n1)cn2Cc1ccc(Cl)cc1Cl | 6.68 | – | logP [3]: 4.6; solubility at 10 min [4]: 15 µg/mL (≈ 31.8 µM)
20 | O=C(O)c1ccc(N/N=C/c2cn(Cc3ccc(Oc4ccccc4)cc3)c3ccccc23)cc1 | – | inactive | –

Row | SMILES | pIC50 [1] | inhibition [2] | also measured
21 | O=C(O)c1ccc2c(c1)c(C(=O)O)cn2CCc1cn(Cc2ccc(Cl)cc2Cl)c2ccccc12 | < 5.00 | 24% | –
22 | O=C(O)CCCCn1nnc(Cc2cn(Cc3ccccc3Cl)c3ccccc23)n1 | 5.54 | – | –
23 | Cc1ccc2c(Cc3nnn(CCCCC(=O)O)n3)cn(Cc3ccc(Cl)cc3Cl)c2c1 | 6.00 | – | –
24 | O=C(O)CCCCn1nnc(Cc2cn(Cc3ccc(Cl)cc3Cl)c3ccc(F)cc23)n1 | 6.70 | – | logP [3]: 4.1; solubility at 10 min [4]: 74 µg/mL (≈ 155 µM)
25 | O=C(O)c1ccc2nn(CCc3cn(Cc4ccc(Cl)cc4Cl)c4ccccc34)nc2c1 | 5.41 | – | –
26 | O=C(O)CCCCn1nnc(Cc2cn(Cc3ccc(Cl)cc3Cl)c3ccc(OCc4ccc(Cl)cc4)cc23)n1 | 5.28 | – | –
27 | O=C(O)CCCCn1nnc(Cc2cn(Cc3ccc(-c4ccccc4)cc3)c3ccccc23)n1 | < 5.00 | 47% | –
28 | O=C(O)c1ccc2nn(CCc3cn(Cc4ccc(Cl)cc4Cl)c4ccccc34)cc2c1 | < 5.00 | 32% | –
29 | Cc1ccc(Cn2cc(Cc3nnn(CCCCC(=O)O)n3)c3ccccc32)cc1 | 5.15 | – | –
30 | O=C(O)CCCCCn1nnc(Cc2cn(Cc3ccc(Cl)cc3Cl)c3ccccc23)n1 | 5.85 | – | –
31 | O=C(O)CCCCn1nnc(Cc2cn(Cc3ccc(F)cc3)c3ccccc23)n1 | < 5.00 | 48% | –
32 | O=C(O)c1ccc2c(ccn2CCc2cn(Cc3ccc(Cl)cc3Cl)c3ccccc23)c1 | < 5.00 | 41% | –
33 | COc1ccc2c(c1)c(CC(=O)O)c(C)n2C(=O)c1ccc(Cl)cc1 [INDOMETHACIN] | – | – | logP [3]: 2.9; solubility at 10 min [4]: 260 µg/mL (≈ 727 µM); Papp at 2 h, 10 µM [5]: 27 ×10⁻⁶ cm/s
34 | O=C(O)c1ccc(Cn2nnc(Cc3cn(Cc4ccc(Cl)cc4Cl)c4ccccc34)n2)cc1 | 5.55 | – | –
35 | O=C(O)CCCn1nnc(Cc2cn(Cc3ccc(Cl)cc3Cl)c3ccccc23)n1 | < 5.00 | 32% | –
36 | Cc1noc(-c2cn(CCc3cn(Cc4ccc(Cl)cc4Cl)c4ccccc34)c3ccc(C(=O)O)cc23)n1 | < 5.00 | 47% | –
37 | O=C(O)CCCn1nnc(-c2cn(Cc3ccc(Cl)cc3Cl)c3ccccc23)n1 | < 5.00 | 22% | –
38 | O=C(O)c1ccc(N/N=C/c2cn(Cc3ccccc3Oc3ccccc3)c3ccccc23)cc1 | – | 15% | –
39 | O=C(O)CCCCn1nnc(Cc2cn(Cc3ccc(C(F)(F)F)cc3)c3ccccc23)n1 | – | inactive | –
40 | O=C(O)CCCCn1nnc(CCc2cn(Cc3ccc(Cl)cc3Cl)c3ccccc23)n1 | 5.32 | – | –

Row | SMILES | pIC50 [1] | inhibition [2] | also measured
41 | O=C(O)CCc1ccc2c(c1)c(CCc1ccccc1)cn2-c1ccc(Oc2ccccc2)cc1 | 6.54 | – | logP [3]: 6.4; solubility at 10 min [4]: < 1 µg/mL
42 | O=C(O)CCCCn1nnc(Cc2cn(Cc3c(Cl)cccc3Cl)c3ccccc23)n1 | < 5.00 | 19% | –
43 | O=C(O)c1ccc(OC(=O)c2cn(Cc3ccc(Cl)cc3Cl)c3ccccc23)cc1 | < 5.00 | 45% | –
44 | O=C(O)c1ccc(N/N=C/c2cn(Cc3ccccc3)c3ccccc23)cc1 | – | 16% | –
45 | O=C(O)CCCCn1nnc(Cc2cn(Cc3ccc(Cl)cc3Cl)c3ccc(-c4ccccc4)cc23)n1 | 5.49 | – | –
46 | O=C(O)CCCCn1nnc(Cc2cn(Cc3ccc(Cl)cc3Cl)c3ccc(Cl)cc23)n1 | 7.15 | – | logP [3]: 4.7; solubility at 10 min [4]: < 1 µg/mL; Papp at 2 h, 10 µM [5]: 15 ×10⁻⁶ cm/s; Drug metabolism [6]: Metabolite_Detected
47 | O=C(O)CCCCn1nnc(-c2cn(Cc3ccc(Cl)cc3Cl)c3ccccc23)n1 | < 5.00 | 48% | –
48 | O=C(O)c1ccc2c(cnn2CCc2cn(Cc3ccc(Cl)cc3Cl)c3ccccc23)c1 | 5.42 | – | –
49 | O=C(Cc1cn(Cc2ccc(Cl)cc2Cl)c2ccccc12)Oc1ccc(C(=O)O)cc1 | 5.49 | – | –
50 | O=C(O)c1ccc(N/N=C/c2cn(Cc3cccc(Oc4ccccc4)c3)c3ccccc23)cc1 | – | 17% | –
51 | COc1ccc2c(c1)c(Cc1nnn(CCCCC(=O)O)n1)cn2Cc1ccc(Cl)cc1Cl | 5.33 | – | –
52 | O=C(O)c1ccc(Cn2nnc(-c3cn(Cc4ccc(Cl)cc4Cl)c4ccccc34)n2)cc1 | < 5.00 | 37% | –
53 | O=C(O)CCCCn1nnc(Cc2cn(Cc3ccc(Cl)cc3Cl)c3cc(Cl)ccc23)n1 | 6.44 | – | –
54 | O=C(O)CCCCn1nnc(Cc2cn(Cc3ccc(Cl)cc3Cl)c3ccccc23)n1 | 6.15 | – | logP [3]: 4; solubility at 10 min [4]: 152 µg/mL (≈ 332 µM)
55 | O=C(O)CCCCn1nnc(Cc2cn(Cc3cccc(Cl)c3)c3ccccc23)n1 | < 5.00 | 33% | –
56 | CN(/N=C/c1cn(Cc2ccc(Cl)cc2Cl)c2ccccc12)c1ccc(C(=O)O)cc1 | – | 27% | –
57 | O=C(O)CCCCn1nnc(Cc2cn(Cc3ccc(Cl)cc3Cl)c3ccc(C(F)(F)F)cc23)n1 | 7.13 | – | logP [3]: 4.9; solubility at 10 min [4]: < 1 µg/mL
58 | O=C(O)CCCCn1nnc(Cc2cn(Cc3ccc(Cl)cc3)c3ccccc23)n1 | 5.38 | – | –
59 | O=C(O)c1ccc(OCCc2cn(Cc3ccc(Cl)cc3Cl)c3ccccc23)cc1 | 5.96 | – | –
60 | O=C(O)c1ccc(N/N=C/c2ccc3ccn(Cc4ccc(Cl)cc4Cl)c3c2)cc1 | – | 32% | –
